Laboratory results as given in patent US9862690B2, “Treatment of pulmonary and other conditions” (University of Pittsburgh—of the Commonwealth System of …, priority 2013, dated 2018).

Experiments:
[1] = TRAP assay (quenching of ABTS+ radical cation); format: biochemical; details: 10 μmol compound, 5 min, absorbance 734 nm; Troxol reference
Protocol: The anti-oxidant activities of PB 141 were determined by the ability of this compound to react with pre-formed radical monocation of 2,2′-azinobis-(3-ethylbenzothiazoline)-6-sulfonic acid (ABTS^+). Data are representative of one of two independent experiments; n=3; *** P<0.001 versus Troxol.
The anti-oxidant activity of PB141 or PB157 was determined by the ability of these compounds to react with the pre-formed radical monocation of 2,2′-azinobis-(3-ethylbenzothiazoline)-6-sulfonic acid (ABTS^+). ABTS (1.8 mmol) was reacted overnight with potassium persulfate (0.63 mmol) in double distilled water, at room temperature in the dark, to generate the dark blue ABTS^+ radical cation. This radical cation has a maximum absorption at 734 nm. Immediately prior to the experiment, ABTS^+ was diluted with absolute ethanol to an absorbance of approximately 0.7 at 734 nm. PB141 or PB157 (10 μmol) was added to ABTS^+ (1 ml) and mixed by vortexing. The reaction was allowed to stabilize for 5 min and the absorbance was measured. The anti-oxidant activities of these compounds were determined by their ability to quench the color of the radical cation. Troxol (10 μmol) was used as reference standard.

[2] = tested on: pulmonary fibrosis in mice; test: Pulmonary fibrosis model (bleomycin, asbestos or X-ray induced); format: in vivo
Protocol: Induction of pulmonary fibrosis by intratracheal injection of bleomycin sulphate (BLM; 0.05 units) was followed by nebulization of PB141 (25 mg/kg) or vehicle (saline) and delivery to cage air via a micropump nebulizer. After 21 days lung samples were obtained. (A) Lung hydroxyproline content. (B) Lung fibrinolysis. (C) Lung collagen content. (D) Lung TGF-β content. Data are representative of one of two independent experiments with n=5-7 mice per group; ** p<0.01, *** p<0.001.
Lung fibrosis was induced by methods previously reported in literature of the relevant art. Briefly, 50 μl of bleomycin sulfate in saline or 0.1 mg of NIEHS crocidolite asbestos (N 10 μm in length) was administered intratracheally into anesthetized mice. In some experiments fibrosis was induced by the following standard X-ray exposure procedure: Anesthetized mice at the age of 10-12 weeks were immobilized, with a lead shield excluding all but the thoracic cavity. Animals were then irradiated with a single dose of 14.5 Gy from a cesium source (J. L. Shepherd and Associates, San Fernando, Calif.) at a dose rate of 1.65 Gy/min LD50 for C57BL/6J mice is 14.5 Gy. At this dose, survival is sufficient to permit adequate numbers of animals for long-term analyses.
After induction of pulmonary fibrosis using the methods as described above, PB141 (25 mg/kg) dissolved in normal saline was delivered for 30 min via a micropump nebulizer (Buxco Research Systems, Wilmington, N.C.) fitted at the chamber inlet. After 21 days, bronchoalveolar lavage fluid (BALF) samples were obtained and analyzed for cellular infiltration by hemocytometer and differential staining of cells. Pulmonary fibrosis was assessed from lung homogenates by estimating total lung collagen content using the Sircol Collagen Assay kit (Biocolor) and hydroxyproline content using a hydroxyproline assay kit (BioVision, Mountain View, Calif.) according to the manufacturer's instructions. Lung histology sections were assessed by morphometry, hematoxylin and eosin (H&E) staining, and Masson's trichrome staining.

[3] = tested on: human lung fibroblasts (IMR-90; fibroblasts of normal or UIP patients); test: TGF-β-treated lung fibroblast proliferation and myofibroblast differentiation; format: cell-based; details: pretreatment 0.1 to 1 μM, then TGF-β 24 h
Protocol: IMR-90 cells were cultured in Dulbecco's modified Eagle's medium (DMEM) containing 10% heat-inactivated fetal bovine serum, penicillin, and streptomycin (100 IU/ml). Monolayer cultures were deprived of serum for 24 h, and treated with different concentrations of PB141 for different time periods as indicated. Cell numbers were then counted at 24, 48, and 72 h. Data are representative of one of two independent experiments; n=3.
IMR-90 cells were cultured in Dulbecco's modified Eagle's medium (DMEM) containing 10% heat-inactivated fetal bovine serum, penicillin, and streptomycin (100 IU/ml). Monolayer cultures were deprived of serum for 24 h, pre-treated with 0.5 μM PB141 or with vehicle (saline) for 1 h, and then exposed to 2 ng/ml TGF-β for 24 h. (A) Western blot analysis for α-smooth muscle actin. (B) Quantitative values for each condition. ***P<0.001 vs Veh. (C) Immunofluorescence microscopy for α-SMA following treatment. Blots and images are representative of two independent experiments.
Additional in vitro experiments were performed using normal human fetal lung fibroblasts (IMR-90; Institute for Medical Research, Camden, N.J.) or fibroblasts grown from mechanically dissociated surgical lung biopsy of histologically normal or usual interstitial pneumonia (UIP) patients. […]

[4] = tested on: PMNs; test: PMN adhesion and transendothelial migration, cells of endotoxin-treated mice; format: in vivo; details: PMNs from peripheral blood of endotoxin-treated mice
Protocol: For additional in vitro studies, after the treatment described above alveolar macrophages were isolated from the BAL fluid and plated in DMEM+10% FBS. After 1 h, RNA was isolated and expression of the different genes was determined using real-time PCR; results were normalized to values for the housekeeping genes glyceraldehyde-3-phosphate dehydrogenase (GAPDH) and […]. […] In other experiments, PMNs were isolated from peripheral blood of endotoxin-treated mice by hetastarch exchange transfusion. PMN adhesion was assessed with the Cytoselect Leukocyte-Endothelium Adhesion Assay kit (CBA-210; Cell Biolabs) and transendothelial PMN migration was determined with the Cytoselect Leukocyte Transmigration Assay kit (CBA-212; Cell Biolabs).

[5] = tested on: lung epithelial cells (BEAS2B); test: IFN-γ or IL-4/IL-13 stimulated lung epithelial cells; format: cell-based; details: 10 ng/ml IFN-γ or IL-4/IL-13 for 6 h
Text: It suppressed the infiltration of inflammatory cells into the airspace and lung and attenuated the expression of cytokines, chemokines, and IgE in BALF and serum.

CC(=O)N[C@@H](CSC(CC(=O)CC(SC[C@H](NC(C)=O)C(=O)O)c1cnccn1)c1cnccn1)C(=O)O (stereo partly shown) [PB141]
Anti-oxidant activity (ability to quench ABTS+ radical cation) [1]: clearly demonstrated
Collagen production ([2]; 25 mg/kg nebulized, 21 days): effectively prevented
Inflammatory cell infiltration ([2]; 25 mg/kg nebulized, 21 days): effectively prevented
Myofibroblast differentiation ([2]; 25 mg/kg nebulized, 21 days): effectively prevented
Tolerability of the solution ([2]; even with intratracheal administration): well tolerated
Pulmonary fibrosis ([2]; repeated pulmonary dosing, 25 mg/kg): significantly reduced
Proliferation of human lung fibroblasts [3]: inhibited
Differentiation to myofibroblasts (α-SMA) ([3]; including UIP patient fibroblasts): inhibited
PMN adhesion [4]: decreased
Transendothelial PMN migration [4]: decreased
Cytokine generation [5]: inhibited
NO production [5]: inhibited
iNOS expression [5]: inhibited
